From US11000033B2, “Ketone or oxime compound, and herbicide” (NISSAN CHEMICAL CORPORATION, priority 2014, dated 2021)

Tests used:
Type in all cases: in vivo
Apera spica-venti = experiment: Test Example 5: herbicidal effect by foliage application, plastic box (symbol L); details: 320 g/ha, 3 weeks after application
How it was run: (§1)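 Visual herbicidal score, taken three weeks post-application, of seedlings sprayed on the foliage with water-diluted emulsion at a predetermined amount; plants were 14 days old, greenhouse-raised at 25° C. to 30° C.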

Alopecurus myosuroides = experiment: Test Example 5: herbicidal effect by foliage application, plastic box (symbol J); details: 320 g/ha, 3 weeks after application
How it was run: as §1

transplanted rice plant = experiment: Test Example 1: effect on crop, application before weed generation in submerged conditions (symbol a); details: application herbicide amount 320 g/ha
How it was run: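 Alluvial soil pots flooded to 4 cm water, sown with Echinochloa oryzacola, Scirpus juncoides and Monochoria vaginalis, then transplanted with 2.5 leaf stage rice seedlings; pre-emergence application. Greenhouse 25° C. to 30° C.; scored 0–5 by herbicidal ratio 3 weeks after application.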

rapeseed = experiment: Test Example 5: effect on crop by foliage application, plastic box (symbol g); details: 320 g/ha, 3 weeks after application
How it was run: (§2)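 Greenhouse culture at 25° C. to 30° C. followed spot-like sowing into sterilized diluvial soil, with seed covered by roughly 1.5 cm of soil.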

Digitaria ciliaris = experiment: Test Example 5: herbicidal effect by foliage application, plastic box (symbol F); details: 320 g/ha, 3 weeks after application
How it was run: as §1

corn = experiment: Test Example 5: effect on crop by foliage application, plastic box (symbol c); details: 320 g/ha, 3 weeks after application
How it was run: as §2

Stellaria media = experiment: Test Example 5: herbicidal effect by foliage application, plastic box (symbol P); details: 320 g/ha, 3 weeks after application
How it was run: as §1

wheat = experiment: Test Example 5: effect on crop by foliage application, plastic box (symbol e); details: 320 g/ha, 3 weeks after application
How it was run: as §2

Galium spurium = experiment: Test Example 5: herbicidal effect by foliage application, plastic box (symbol Q); details: 320 g/ha, 3 weeks after application
How it was run: as §1

Veronica persica = experiment: Test Example 5: herbicidal effect by foliage application, plastic box (symbol R); details: 320 g/ha, 3 weeks after application
How it was run: as §1

Scirpus juncoides [1] = experiment: Test Example 2: herbicidal activity, application during weed generation in submerged conditions (symbol B); details: Table 23; application herbicide amount 320 g/ha; grade 0-5 by criteria of Test Example 1
Procedure: (§3) Herbicidal Activity Test by Application During Weed Generation in Submerged Conditions
(§4) After alluvial soil was placed into 1/10000 are of Wagner pot, water was poured and mixed to form a submerged condition having a water depth of 4 cm. Seeds of Echinochloa oryzacola Vasing., Scirpus juncoides, and Monochoria vaginalis were sowed in a mixed manner in the above pot and the pot was placed in the greenhouse of 25° C. to 30° C. to grow the plants. When Echinochloa oryzacola Vasing., Scirpus juncoides, and Monochoria vaginalis were grown to one leaf stage to two leaf stage, the emulsion agent of the compound of the present invention prepared in accordance with Formulation Example 2 was diluted with water so as to be a predetermined herbicide amount and the diluted emulsion agent was applied to the surface of the water. 3 weeks later from the herbicide application, the effect to each plant was investigated in accordance with the criteria of Test Example 1.

Chenopodium album = experiment: Test Example 5: herbicidal effect by foliage application, plastic box (symbol O); details: 320 g/ha, 3 weeks after application
How it was run: as §1

soybean = experiment: Test Example 5: effect on crop by foliage application, plastic box (symbol d); details: 320 g/ha, 3 weeks after application
How it was run: as §2

beet = experiment: Test Example 5: effect on crop by foliage application, plastic box (symbol f); details: 320 g/ha, 3 weeks after application
How it was run: as §2

Monochoria vaginalis [2] = experiment: Test Example 2: herbicidal activity, application during weed generation in submerged conditions (symbol C); details: Table 23; application herbicide amount 320 g/ha; grade 0-5 by criteria of Test Example 1
Procedure: as §3, §4

[3] = test system: Echinochloa crus-galli var. crus-galli; experiment: Test Example 5: herbicidal effect by foliage application, plastic box (symbol H); details: 320 g/ha, 3 weeks after application
How it was run: as §1

Monochoria vaginalis [4] = experiment: Test Example 1: herbicidal activity, application before weed generation in submerged conditions (symbol C); details: application herbicide amount 320 g/ha
How it was run: (§5)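 Paddy pre-emergence test. Formulated emulsion, water-diluted to a predetermined rate, is applied to floodwater on sowing day; rice transplanted at 2.5 leaves. Effect read at 3 weeks on a 0–5 herbicidal-ratio scale.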

[5] = test system: Echinochloa oryzacola Vasing.; experiment: Test Example 2: herbicidal activity, application during weed generation in submerged conditions (symbol A); details: Table 23; application herbicide amount 320 g/ha; grade 0-5 by criteria of Test Example 1
Procedure: as §3, §4

Scirpus juncoides [6] = experiment: Test Example 1: herbicidal activity, application before weed generation in submerged conditions (symbol B); details: application herbicide amount 320 g/ha
How it was run: as §5

rice plant = experiment: Test Example 5: effect on crop by foliage application, plastic box (symbol b); details: 320 g/ha, 3 weeks after application
How it was run: as §2

[7] = test system: Echinochloa oryzacola Vasing.; experiment: Test Example 1: herbicidal activity, application before weed generation in submerged conditions (symbol A); details: application herbicide amount 320 g/ha
How it was run: as §5

Amaranthus retroflexus = experiment: Test Example 5: herbicidal effect by foliage application, plastic box (symbol N); details: 320 g/ha, 3 weeks after application
How it was run: as §1

Setaria viridis = experiment: Test Example 5: herbicidal effect by foliage application, plastic box (symbol G); details: 320 g/ha, 3 weeks after application
How it was run: as §1

Lolium multiflorum Lam. = experiment: Test Example 5: herbicidal effect by foliage application, plastic box (symbol K); details: 320 g/ha, 3 weeks after application
How it was run: as §1

Avena fatua = experiment: Test Example 5: herbicidal effect by foliage application, plastic box (symbol I); details: 320 g/ha, 3 weeks after application
How it was run: as §1

Abutilon theophrasti = experiment: Test Example 5: herbicidal effect by foliage application, plastic box (symbol M); details: 320 g/ha, 3 weeks after application
How it was run: as §1

[8] = test system: Echinochloa crus-galli var. crus-galli; experiment: Test Example 3: herbicidal effect by foliage application, Wagner pot (symbol H); details: application herbicide amount 320 g/ha
How it was run: (§6)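 Scoring took place 3 weeks after application, using fixed criteria. Plants had been raised from seed for 14 days at 25 to 30 °C in submerged alluvial soil before a diluted emulsion of the test compound was sprayed uniformly on the leaves.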

Leptochloa chinensis = experiment: Test Example 3: herbicidal effect by foliage application, Wagner pot (symbol D); details: application herbicide amount 320 g/ha
How it was run: as §6

[9] = test system: directly sowed rice plant; experiment: Test Example 3: effect on crop by foliage application, Wagner pot (symbol b); details: application herbicide amount 320 g/ha
How it was run: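 Wagner pot (1/10000 are), alluvial soil, submerged 0.1–0.5 cm; sown E. crus-galli var. crus-galli, L. chinensis, C. difformis, rice; greenhouse 25–30 °C.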

## CC(CC1CC(O)=C(c2c(C)cc(C)cc2C)C1=O)=NOCc1c(F)cccc1Cl (stereo not shown) [1-115]
Apera spica-venti
  L: Apera spica-venti, herbicidal effect (criteria 0-5): 4 (Herbicidal ratio of 70% or higher and lower than 90%)
Alopecurus myosuroides
  J: Alopecurus myosuroides, herbicidal effect (criteria 0-5): 3 (Herbicidal ratio of 40% or higher and lower than 70%)
Transplanted rice plant
  Effect grade on crop, a: transplanted rice plant: 1 (Herbicidal ratio of 5% or higher and lower than 20%)
rapeseed
  g: rapeseed, effect on crop (criteria 0-5): 5 (Herbicidal ratio of 90% or more (almost completely withered))
Digitaria ciliaris
  F: Digitaria ciliaris, herbicidal effect (criteria 0-5): 2 (Herbicidal ratio of 20% or higher and lower than 40%)
corn
  c: corn, effect on crop (criteria 0-5): 0 (Herbicidal ratio of 5% or lower (almost no effect))
Stellaria media
  P: Stellaria media, herbicidal effect (criteria 0-5): 1 (Herbicidal ratio of 5% or higher and lower than 20%)
wheat
  e: wheat, effect on crop (criteria 0-5): 0 (Herbicidal ratio of 5% or lower (almost no effect))
Galium spurium
  Q: Galium spurium, herbicidal effect (criteria 0-5): 0 (Herbicidal ratio of 5% or lower (almost no effect))
Veronica persica
  R: Veronica persica, herbicidal effect (criteria 0-5): 1 (Herbicidal ratio of 5% or higher and lower than 20%)
Scirpus juncoides [1]
  Herbicidal effect grade, B: Scirpus juncoides: 2 (Herbicidal ratio of 20% or higher and lower than 40%)
Chenopodium album
  O: Chenopodium album, herbicidal effect (criteria 0-5): 0 (Herbicidal ratio of 5% or lower (almost no effect))
soybean
  d: soybean, effect on crop (criteria 0-5): 0 (Herbicidal ratio of 5% or lower (almost no effect))
beet
  f: beet, effect on crop (criteria 0-5): 0 (Herbicidal ratio of 5% or lower (almost no effect))
Monochoria vaginalis [2]
  Herbicidal effect grade, C: Monochoria vaginalis: 0 (Herbicidal ratio of 5% or lower (almost no effect))
[3]
  H: Echinochloa crus-galli var. crus-galli, herbicidal effect (criteria 0-5): 1 (Herbicidal ratio of 5% or higher and lower than 20%)
Monochoria vaginalis [4]
  Herbicidal effect grade, C: Monochoria vaginalis: 4 (Herbicidal ratio of 70% or higher and lower than 90%)
[5]
  Herbicidal effect grade, A: Echinochloa oryzacola Vasing.: 3 (Herbicidal ratio of 40% or higher and lower than 70%)
Scirpus juncoides [6]
  Herbicidal effect grade, B: Scirpus juncoides: 3 (Herbicidal ratio of 40% or higher and lower than 70%)
Rice plant
  b: directly sowed rice plant, effect on crop (criteria 0-5): 1 (Herbicidal ratio of 5% or higher and lower than 20%)
[7]
  Herbicidal effect grade, A: Echinochloa oryzacola Vasing.: 5 (Herbicidal ratio of 90% or more (almost completely withered))
Amaranthus retroflexus
  N: Amaranthus retroflexus, herbicidal effect (criteria 0-5): 0 (Herbicidal ratio of 5% or lower (almost no effect))
Setaria viridis
  G: Setaria viridis, herbicidal effect (criteria 0-5): 1 (Herbicidal ratio of 5% or higher and lower than 20%)
Lolium multiflorum Lam.
  K: Lolium multiflorum Lam., herbicidal effect (criteria 0-5): 3 (Herbicidal ratio of 40% or higher and lower than 70%)
Avena fatua
  I: Avena fatua, herbicidal effect (criteria 0-5): 2 (Herbicidal ratio of 20% or higher and lower than 40%)
Abutilon theophrasti
  M: Abutilon theophrasti, herbicidal effect (criteria 0-5): 0 (Herbicidal ratio of 5% or lower (almost no effect))

## CON=C(C)CC1CC(OCC(Cl)=CCl)=C(c2c(C)cc(C)cc2C)C1=O (stereo not shown) [1-166]
[8]
  herbicidal effect on H (Echinochloa crus-galli var. crus-galli), grade 0-5: 4 (Herbicidal ratio of 70% or higher and lower than 90%)
Apera spica-venti
  L: Apera spica-venti, herbicidal effect grade: 5 (Herbicidal ratio of 90% or more (almost completely withered))
Alopecurus myosuroides
  J: Alopecurus myosuroides, herbicidal effect grade: 4 (Herbicidal ratio of 70% or higher and lower than 90%)
Transplanted rice plant
  Effect grade on crop, a: transplanted rice plant: 0 (Herbicidal ratio of 5% or lower (almost no effect))
rapeseed
  g: rapeseed, effect on crop grade: 4 (Herbicidal ratio of 70% or higher and lower than 90%)
Digitaria ciliaris
  F: Digitaria ciliaris, herbicidal effect grade: 1 (Herbicidal ratio of 5% or higher and lower than 20%)
corn
  c: corn, effect on crop grade: 1 (Herbicidal ratio of 5% or higher and lower than 20%)
Stellaria media
  P: Stellaria media, herbicidal effect grade: 0 (Herbicidal ratio of 5% or lower (almost no effect))
wheat
  e: wheat, effect on crop grade: 1 (Herbicidal ratio of 5% or higher and lower than 20%)
Galium spurium
  Q: Galium spurium, herbicidal effect grade: 0 (Herbicidal ratio of 5% or lower (almost no effect))
Veronica persica
  R: Veronica persica, herbicidal effect grade: 0 (Herbicidal ratio of 5% or lower (almost no effect))
Scirpus juncoides [1]
  Herbicidal effect grade, B: Scirpus juncoides: 0 (Herbicidal ratio of 5% or lower (almost no effect))
Chenopodium album
  O: Chenopodium album, herbicidal effect grade: 0 (Herbicidal ratio of 5% or lower (almost no effect))
soybean
  d: soybean, effect on crop grade: 1 (Herbicidal ratio of 5% or higher and lower than 20%)
beet
  f: beet, effect on crop grade: 0 (Herbicidal ratio of 5% or lower (almost no effect))
Leptochloa chinensis
  herbicidal effect on D (Leptochloa chinensis), grade 0-5: 4 (Herbicidal ratio of 70% or higher and lower than 90%)
Monochoria vaginalis [2]
  Herbicidal effect grade, C: Monochoria vaginalis: 0 (Herbicidal ratio of 5% or lower (almost no effect))
[3]
  H: Echinochloa crus-galli var. crus-galli, herbicidal effect grade: 4 (Herbicidal ratio of 70% or higher and lower than 90%)
Monochoria vaginalis [4]
  Herbicidal effect grade, C: Monochoria vaginalis: 0 (Herbicidal ratio of 5% or lower (almost no effect))
[5]
  Herbicidal effect grade, A: Echinochloa oryzacola Vasing.: 3 (Herbicidal ratio of 40% or higher and lower than 70%)
Scirpus juncoides [6]
  Herbicidal effect grade, B: Scirpus juncoides: 0 (Herbicidal ratio of 5% or lower (almost no effect))
Rice plant
  b: directly sowed rice plant, effect on crop grade: 3 (Herbicidal ratio of 40% or higher and lower than 70%)
[7]
  Herbicidal effect grade, A: Echinochloa oryzacola Vasing.: 5 (Herbicidal ratio of 90% or more (almost completely withered))
[9]
  effect on crop b (directly sowed rice plant), grade 0-5: 3 (Herbicidal ratio of 40% or higher and lower than 70%)
Amaranthus retroflexus
  N: Amaranthus retroflexus, herbicidal effect grade: 0 (Herbicidal ratio of 5% or lower (almost no effect))
Setaria viridis
  G: Setaria viridis, herbicidal effect grade: 1 (Herbicidal ratio of 5% or higher and lower than 20%)
Lolium multiflorum Lam.
  K: Lolium multiflorum Lam., herbicidal effect grade: 5 (Herbicidal ratio of 90% or more (almost completely withered))
Avena fatua
  I: Avena fatua, herbicidal effect grade: 5 (Herbicidal ratio of 90% or more (almost completely withered))
Abutilon theophrasti
  M: Abutilon theophrasti, herbicidal effect grade: 3 (Herbicidal ratio of 40% or higher and lower than 70%)
